Laboratory results reported in patent US12234228B2, “Nitric oxide donor and anti-oxidant compounds” (University of North Texas Health Science Center, priority 2018, dated 2025).
Entries after “also recorded” stand apart in the source; their conditions may differ.

Key:
[1] = pyrogallol induced ROS (superoxide) scavenging assay; format: biochemical; details: Concentration 250 μM; Time 0.5 h
[2] = system: mouse hippocampal neural cells (HT-22); experiment: cytotoxicity / proliferation in mouse hippocampal neural cells (HT-22); details: for cell proliferation: different doses
HUVEC [3] = experiment: HUVEC viability / cytoprotection under H2O2 induced oxidative stress (MTT); format: cell-based, Human; details: for effective range of concentration to protect ECs: ECs under H2O2 stress; for cytoprotective activity: different concentrations
[4] = system: Nitric oxide synthetase (NOS); experiment: NOS activating activity in HUVEC under H2O2 stress; format: cell-based, Human; details: for level of NOS: HUVEC treated with H2O2, both doses 0.05 μM and 0.5 μM; for eNOS activity: HUVEC under H2O2 induced oxidative stress
Method: In vitro Nitric oxide synthetase (NOS) activating activity. Human Umbilical Vascular Endothelial Cells (HUVECs) were plated at a density of 2×10^5 cells per well and were treated with or without H2O2 (200 μM) and compounds at different concentrations. NOS knock-down samples (NOSi) were cells exposed to a competitive NOS inhibitor L-NNA at 50 μM. After 24-hour-treatment, total NOS activity from treated cells was quantified using OxiSelect™ Intracellular Nitric Oxide (NO) Assay Kit where NOS activity correlates to fluorescent intensity^5.

[5] = system: plasminogen activating inhibitor-1 (PAI-1); experiment: DEX induced PAI-1 in human trabecular meshwork cells (western blot); format: cell-based; details: DEX 100 nM, compound 100 μM, 48 hr, conditioned medium
Method: Briefly, cells were plated at a density of 2×10^5 cells per well and were treated with DEX (100 nM) or vehicle (ethanol) in the presence of 100 μM of SA-1, SA-2, SA-9, SA-10 and PBA (positive control) for 48 hr. Conditioned medium was collected for western blot. Experiments were performed in triplicates.
In vitro plasminogen activating inhibitor-1 (PAI-1) activity. Human primary trabecular meshwork (hTM) cells were plated in 6-well plates at a density of 2×10^5 cells per well and were treated with dexamethasone (DEX, 100 nM) or vehicle (ethanol) in the presence of test compounds (100 μM) for 48 hr. Conditioned medium was collected for Western Blot. Experiments were performed in triplicates […].

[6] = system: human trabecular meshwork cells; experiment: cytoprotection of human trabecular meshwork cells under TBHP induced oxidative stress; format: cell-based; details: for concentration providing cytoprotection: oxidative stress induced cell death model; for cytoprotective activity: TBHP (300 μM) induced oxidative stress
ROS in HUVEC cells = experiment: ROS scavenging in HUVEC under oxidative stress (DCFDA assay); format: cell-based, Human; details: H2O2 induced oxidative stress, SA-9 at 0.05 μM
endothelial cells = experiment: transwell chemotaxis EC migration under oxidative stress; format: cell-based, Human; details: for EC migration (FIG. 6): 0.5 μM, transwell
Method: Cell migration studies. Transwell chemotaxis migration studies were conducted to study effects of SA-2 and SA-10 drugs on the migration of endothelial cells under stress conditions. To this, ECs were seeded at 50,000 cells/cm^2 on upper compartment (low serum media with 200 μM H2O2) and attracted to migrate through 8 μm-pore membrane by chemotaxis (SA compounds dissolved in low serum media with 200 μM H2O2) added in lower compartment. At 12 hours, migrated cells were fixed with 4% paraformaldehyde and stained with crystal violet prior to imaging and counting by Cell counter on ImageJ.

[7] = system: primary microglia isolated from rat retina; experiment: TII induced ROS in primary microglia (DCFDA assay); details: for TII induced ROS production: 10 μM, 24 h, TII = TNF-α, IL-1β, IFN-γ; for activation of microglia by the compound itself: rat primary microglia, without TII
[8] = system: primary microglia isolated from rat retina; experiment: TII induced cell death in primary microglia (LDH assay); format: cell-based; details: 10 μM, 24 h
HUVEC [9] = experiment: in vitro angiogenesis / tube formation under oxidative stress; format: cell-based, Human; details: for angiogenesis and new tube formation: HUVEC under oxidative stress (200 μM H2O2); for angiogenesis and new tube formation (FIG. 5): SA-9 0.5 μM, SA-10 0.005 μM, H2O2 200 μM, low serum media
Method: In vitro angiogenesis studies. Cultrex reduced growth factor basement membrane extracted gel (Cat. 3433-005-01, R&D Systems, Inc.) was coated on bottom of μ-Slide angiogenesis wells (Cat. 81506, iBidi GmbH Co.). ECs at early passages (passage 6th or earlier) were then seeded on gel at a seeding density of 25,000 cells/cm^2. Next, cells were treated with treatment groups (SA-2, SA-10, SA-10 NPs, VEGF) under stress condition (200 μM H2O2). After 12 hours of incubation, formation of new microtubes were visualized and captured on phase contrast microscopes. Images were then stacked and processed with Angiogenesis analyzer on ImageJ.

[10] = system: primary microglia isolated from rat retina; experiment: TII induced nitric oxide in primary microglia (Greiss assay); format: cell-based; details: 10 μM, 24 h
ischemic hindlimb mice = experiment: hind limb ischemia (PAD) model: blood perfusion and treadmill; format: in vivo, mouse
From the text: Parameters: Incline 30 degrees; max endurance test at […]; stimulation: 1.5 mA. Stimulation and distance count were stopped when a mouse met one of the following conditions: 1) total stimulation time 30 seconds; or 2) single stimulation time is more than 10 seconds.
Animal model. Since PAD happens commonly in old people, the inventor used old mice for ischemic hindlimb animal models. To this, male and female Balb/c mice at age of 30-40 weeks old were chosen for these in vivo studies. Animals were housed in individual cage at normal diet before performing ligation. In brief, animals were anesthetized with 2% isoflurane, and prior to incision, analgesic SR Buprenorphine was injected subcutaneously (at dose of 1 mg/kg for mice). Upon opening the incision on animals left legs, the membrane covering the inguinal fat tissue was carefully separated to expose the neurovascular bundle underneath and veins and nerves were then carefully separated from arteries. Next, three pair of 1 mm-distal ties (using 6-0 or 7-0 nonabsorbable suture) followed by transection (by spring scissor) were made on femoral artery, proximal caudal femoral artery and superficial caudal epigastric artery. Finally, the incision was closed by absorbable 5-0 or 6-0 sutures. The animal model appeared limping similar to literature report^37 from the time post-treatment until endpoint study.
Therapeutic groups of study and sample size. After 3 days of ligation, mice were randomly assigned into 4 groups: Sham, free SA-10, SA-10 NPs and blank PLGA NPs. Sham groups were injected with saline without any therapeutic treatment. Based on study of biodistribution, the route of administration was intramuscular (IM) injection. To determine sample size, a power of analysis was processed on SigmaPlot v.13 software. Significant difference would be considered when P<0.05. Based on the inventor's own experience and literature reports, the inventor selected power with α<0.05 as 0.8. Calculation yielded sample size as n=5.
In vivo blood perfusion and physical test. Animals under treatments were measured for their recovery physiologically and physically. In the former study, animals were anesthetized with 1.5-2% isoflurane, and blood perfusion was measured with Laser Speckle Contrast Imaging (PeriCam PSI NR, Perimed AB). Briefly, hemoglobin in shallow vessels and capillaries responded to exciting lasers in term of color pigments. The relative blood perfusion was calculated by device software (PIMSoft), and it correlated to typical pigments. […]
When the animal was not running for total of 30 seconds under stimulation, the run of animals was terminated from recording. Physical recovery of animals was then quantified as covered distance until exhaustion, which was obtained from the treadmill software.

I/R mice retina = experiment: retinal ischemia/reperfusion injury model in mouse eyes; format: in vivo
Method: The function of retinal ganglion cells (RGCs) can be non-invasively assessed by pattern electroretinogram (PERG) a technique that emphasizes the activity of inner retina neurons. The amplitude of PERG reflects the degree of apparent damage by RGCs. A murine model of ocular stroke was employed to evaluate the function of […] upon administration of SA-10. After a single intravitreal injection of 100 μM of SA-10 to the left eye of mice (C57BL/6J, 12 weeks old, female) having undergone ischemia reperfusion (I/R) procedure, standard PERG was analyzed 1 week post I/R to determine whether compound SA-10 could prevent PERG deficits (FIGS. 9A & 9B). […] However, there was a significant decrease in PBS treated mice compared to PERG amplitudes from sham mice (14.8±1.4 μV, n=5). As expected, compound SA-10 injection increased PERG amplitude compared to PBS-treated I/R mice (21±1.4 μV, n=5, p<0.05 vs. I/R+PBS treated mice; values signify mean±SEM).
Ischemic/reperfusion injury model in mouse eyes. Mice (C57Bl6/J, 12 weeks, n=5) were anesthetized and the ischemic/reperfusion (I/R) injury was performed on left eye after it was numbed with proparacaine followed by intravitreal injection of 2 μl of […] of compound SA-10 formulated in PBS (I/R+SA-10 group) or only 2 μl PBS to left eye (I/R+PBS group) at days 0. At day 7, pattern ERG was performed with the JORVEC System. SD-OCT was done to measure the change in overall thickness of retina layers and flash ERG was done to measure the function of bipolar cells (b-wave) as well as photoreceptor cells (a-wave) after 28 days. Pattern ERG was performed to measure the function of RGCs. Right eye was served as contralateral control.

[11] = HUVEC, H2O2 induced oxidative stress

Compound | AUCt=0 to t=3h [1] | cell proliferation [2] | effective range of concentration to protect ECs (HUVEC [3]) | level of NOS [4] | eNOS activity [4] | DEX induced PAI-1 [5] | concentration providing cytoprotection [6] | ROS scavenging activity in DCFDA assay (ROS in HUVEC cells) | EC migration (endothelial cells) | EC migration (FIG. 6) (endothelial cells) | cytoprotective activity (HUVEC [3]; [11]) | TII induced ROS production [7] | activation of microglia by the compound itself [7] | TII induced cell death (LDH release) [8] | angiogenesis and new tube formation (HUVEC [9]) | angiogenesis and new tube formation (FIG. 5) (HUVEC [9]) | TII induced nitric oxide (nitrite) production [10] | cytoprotective activity [6] | further results
O=c1cc(-c2ccccc2)oc2cc(O)c(O)c(O)c12 [Baicalein, baicalein] | 1944 | – | – | – | – | – | – | – | – | – | – | – | – | – | – | – | – | – | –
CC1(C)CC([n+]2cc(N)on2)CC(C)(C)N1O [SA-2, reference compound] | 3338 | didn't show such trend | up to 1 μM | increased the level of NOS significantly | induced eNOS signals | didn't show such activity | 16 µM | – | – | – | – | – | – | – | – | – | – | – | doses showing cytoprotective activity (HUVEC [3]; [11]): decreased as the dose increased
Nc1c[n+](C2CCSCC2)no1 [SA-9] | 3402 | dose dependent increase in cell proliferation | – | increased the level of NOS significantly | increase in eNOS activity | – | 8 µM | scavenged ROS | induce EC migration | induce EC migration | potent cytoprotective activity | decrease | did not activate | decrease the cell death | induce angiogenesis and new tube formation | induce angiogenesis and new tube formation | decrease | superior cytoprotective activity | cytotoxicity ([2]; different concentrations): not toxic to neural cells
Nc1c[n+](C2CCS(=O)(=O)CC2)no1 [SA-10] | – | – | up to 100 μM | – | induced eNOS signals | showed inhibition; also recorded: decreased DEX induced increase in PAI-I level | – | didn't show any significant ROS scavenging activity | induce EC migration; also recorded: performed comparably to SA-2 | induce EC migration | potent cytoprotective activity | decrease | did not activate | decrease the cell death | induce angiogenesis and new tube formation; also recorded: significantly induced tube formation | induce angiogenesis and new tube formation | decrease | cytoprotective activity | EC protection, longer protection study (HUVEC [3]; 2-day stress with 400 μM H2O2): protected over the course of 2-day stress; blood perfusion indexes (ischemic hindlimb mice; 0.125 mg/kg drug, IM, ischemic versus normal limb): performed better than sham and blank vehicle at the beginning; endurance run (ischemic hindlimb mice; 0.125 mg/kg drug, IM, treadmill distance until exhaustion): performed better than sham and blank vehicle at the beginning; recovery in treadmill experiment (ischemic hindlimb mice; IM injection, day 0 and day 7, vs. sham and VEGF): good recovery effects; new blood vessel formation and blood circulation (ischemic hindlimb mice; mouse leg after artery occlusion, assessed by treadmill): increase new blood vessel formation and blood circulation; PERG amplitude (I/R mice retina; 1 week post I/R, single intravitreal injection 100 μM, mean±SEM, n=5): 21±1.4 μV; retinal layer thickness by SD-OCT (I/R mice retina; after I/R): maintenance of retinal layer thickness; ERG amplitude (a- and b-wave) damage after I/R (I/R mice retina; flash ERG 28 days post-I/R): significantly reversed these damages; protein nitrosylation in retina (I/R mice retina; intravitreal dosing of 2%): doesn't cause any significant protein nitrosylation; retina protection against ischemic stroke and reperfusion (I/R mice retina; single intravitreal injection): protective to retina
[NH-]c1c[n+](N2CCOCC2)no1 [SIN-1, reference compound] | 1856 | – | – | – | – | – | – | – | – | – | – | did not | – | – | – | – | – | – | –
